Test results published in the supplement of paper PMC5579334.
± gives the standard deviation of the averaged measurements.

Tests used:
HS-PSS [1] = experiment: drug sensitivity score (DSS, CellTiter-Glo viability, 72 h) (DSS (dimensionless)); higher = more sensitive; extreme values may be limits of the assay
Outline: (§1)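 MPNST cell lines and primary human Schwann cells were seeded at 750–1000 cells per well into 384-well plates preprinted with each compound at five concentrations in 10-fold steps, then incubated 72 h at 37 °C, 5% CO2. CellTiter-Glo ATP luminescence gave viability, scaled between vehicle and positive-control wells, with duplicates averaged where present. Curves were fitted with a four-parameter logistic model. Percent inhibition refers to the top concentration, while drug sensitivity score and relative IC50, censored at the top concentration, come from these fits.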

HS-Sch-2 [2] = experiment: as above
Outline: as §1

[3] = test system: HSC1 (primary human Schwann cells); experiment: as above
Outline: as §1

[4] = test system: HSC2 (primary human Schwann cells); experiment: as above
Outline: as §1

S1507-2 [5] = experiment: as above
Outline: as §1

S462 [6] = experiment: as above
Outline: as §1

ST8814 [7] = experiment: as above
Outline: as §1

STS26T [8] = experiment: as above
Outline: as §1

YST-1 [9] = experiment: as above
Outline: as §1

HS-PSS [10] = experiment: drug sensitivity score (DSS, CellTox-Green cytotoxicity, 72 h) (DSS (dimensionless)); higher = more cytotoxic; extreme values may be limits of the assay
Outline: (§2)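 For 72 h at 37 °C, MPNST cell lines and primary human Schwann cells were exposed in 384-well plates to five 10-fold compound dilutions. CellTox-Green, added before seeding at a final 1:1000 dilution, gave fluorescence from DNA released by disrupted cells. Signals were scaled to vehicle and positive-control wells, cultures failing plate quality control were left out, and four-parameter logistic fits were applied. Relative IC50 and drug sensitivity score were derived from the fits, with IC50 censored at the top concentration.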

[11] = test system: HSC1 (primary human Schwann cells); experiment: as above
Outline: as §2

[12] = test system: HSC2 (primary human Schwann cells); experiment: as above
Outline: as §2

S1507-2 [13] = experiment: as above
Outline: as §2

ST8814 [14] = experiment: as above
Outline: as §2

STS26T [15] = experiment: as above
Outline: as §2

HS-PSS [16] = experiment: % inhibition of CellTiter-Glo viability at highest tested concentration (72 h), relative to DMSO and benzethonium chloride controls; higher = more inhibition
Outline: as §1

HS-Sch-2 [17] = experiment: as above
Outline: as §1

[18] = test system: HSC1 (primary human Schwann cells); experiment: as above
Outline: as §1

[19] = test system: HSC2 (primary human Schwann cells); experiment: as above
Outline: as §1

S1507-2 [20] = experiment: as above
Outline: as §1

S462 [21] = experiment: as above
Outline: as §1

ST8814 [22] = experiment: as above
Outline: as §1

STS26T [23] = experiment: as above
Outline: as §1

YST-1 [24] = experiment: as above
Outline: as §1

| Structure (SMILES) | drug sensitivity score (HS-PSS [1]) | drug sensitivity score (HS-Sch-2 [2]) | drug sensitivity score [3] | drug sensitivity score [4] | drug sensitivity score (S1507-2 [5]) | drug sensitivity score (S462 [6]) | drug sensitivity score (ST8814 [7]) | drug sensitivity score (STS26T [8]) | drug sensitivity score (YST-1 [9]) | drug sensitivity score (HS-PSS [10]) | drug sensitivity score [11] | drug sensitivity score [12] | drug sensitivity score (S1507-2 [13]) | drug sensitivity score (ST8814 [14]) | drug sensitivity score (STS26T [15]) | % inhibition (HS-PSS [16]) [%] | % inhibition (HS-Sch-2 [17]) [%] | % inhibition [18] [%] | % inhibition [19] [%] | % inhibition (S1507-2 [20]) [%] | % inhibition (S462 [21]) [%] | % inhibition (ST8814 [22]) [%] | % inhibition (STS26T [23]) [%] | % inhibition (YST-1 [24]) [%] |
| --- | --- | --- | --- | --- | --- | --- | --- | --- | --- | --- | --- | --- | --- | --- | --- | --- | --- | --- | --- | --- | --- | --- | --- | --- |
| CO[C@H]1C[C@@H]2CC[C@@H](C)[C@@](O)(O2)C(=O)C(=O)N2CCCC[C@H]2C(=O)O[C@H]([C@H](C)C[C@@H]2CC[C@@H](O)[C@H](OC)C2)CC(=O)[C@H](C)/C=C(\C)[C@@H](O)[C@@H](OC)C(=O)[C@H](C)C[C@H](C)/C=C/C=C/C=C/1C [Sirolimus] (max concentration tested 100 nM) | 4.11 | 3.47 | 0.673 | 1.62 | 0.128 ± 0.18 | 0 | 0.411 | 1.7 | 6.14 | 0 | 0 | 0 | 0.0997 ± 0.14 | 0 | 0 | 32.9 | 29.1 | 24.6 | 23.2 | 5.52 ± 9 | 1.96 ± 4.9 | 14.7 | 27.9 | 45.1 |
| CO[C@H](C(=O)[C@@H](O)[C@@H](C)O)[C@@H]1Cc2cc3cc(O[C@H]4C[C@@H](O[C@H]5C[C@@H](O)[C@H](O)[C@@H](C)O5)[C@@H](O)[C@@H](C)O4)c(C)c(O)c3c(O)c2C(=O)[C@H]1O[C@H]1C[C@@H](O[C@H]2C[C@@H](O[C@H]3C[C@](C)(O)[C@H](O)[C@@H](C)O3)[C@H](O)[C@@H](C)O2)[C@H](O)[C@@H](C)O1 [Plicamycin] (max concentration tested 10000 nM) | 9.51 | 12.5 | 24.4 | 24.6 | 22.5 ± 0.9 | 24.32 ± 0.091 | 25.7 | 27 | 14.8 | 2.63 | 10.6 | 12.6 | 10.4 ± 4.4 | 0 | 25.9 | 96.8 | 102 | 83.7 | 87 | 87 ± 2.5 | 97.26 ± 0.26 | 82.8 | 95.8 | 101 |
| Nc1ccccc1NC(=O)c1ccc(CNc2nccc(-c3cccnc3)n2)cc1 [Mocetinostat] (max concentration tested 10000 nM) | 6.61 | 9.89 | 9.63 | 10.5 | 8.06 ± 0.65 | 15.4 ± 0.54 | 8.59 | 8.68 | 15 | 4.26 | 4.7 | 6.39 | 5.36 ± 2.5 | 5.01 | 6.23 | 88 | 101 | 83.9 | 87.2 | 95.338 ± 0.088 | 94.19 ± 0.4 | 93.5 | 87.5 | 100 |
| CO[C@@]12[C@H](COC(N)=O)C3=C(C(=O)C(C)=C(N)C3=O)N1C[C@@H]1N[C@@H]12 [Mitomycin C] (max concentration tested 10000 nM) | 0.31 | 0.9 | 2.63 | 2.34 | 3.18 ± 0.05 | 3.23 ± 0.21 | 3.61 | 2.31 | 4.11 | 0 | 2.29 | 2.91 | 2.38 ± 3 | 5.46 | 1.57 | 16.2 | 28.5 | 52.1 | 51.3 | 69.5 ± 1.9 | 68.5 ± 1.9 | 77.4 | 50.2 | 55.7 |
| COC(=O)C[C@](O)(CCCC(C)(C)O)C(=O)O[C@@H]1C(OC)=C[C@]23CCCN2CCc2cc4c(cc2[C@H]13)OCO4 [Omacetaxine] (max concentration tested 10000 nM) | 23.1 | 26 | 25.4 | 26.6 | 25.33 ± 0.068 | 31.4 ± 0.81 | 25.2 | 27.9 | 36.4 | 1.24 | 8.49 | 11.7 | 13.4 ± 3 | 5 | 15 | 80.3 | 102 | 92 | 96.2 | 98.539 ± 0.044 | 99.121 ± 0.0091 | 88.6 | 98.6 | 99.5 |
| NC(=O)c1ccc(I)c([N+](=O)[O-])c1 [Iniparib] (max concentration tested 10000 nM) | 0 | 0 | 0 | 0 | 0 | 0 | 0 | 0 | 0 | 0 | 0 | 0 | 6.29 ± 8.9 | 0 | 0.221 | -1.31 | 1.26 | -4.93 | 1.97 | 9.46 ± 1.8 | 13.9 ± 7.7 | -1.13 | 7.72 | -4.35 |
| CC(=O)Nc1cccc(-n2c(=O)n(C3CC3)c(=O)c3c(Nc4ccc(I)cc4F)n(C)c(=O)c(C)c32)c1 [Trametinib] (max concentration tested 250 nM) | 5.07 | 4.27 | 9.86 | 8.12 | 10.4 ± 0.064 | 13.48 ± 0.13 | 12.8 | 7.88 | 0 | 0.89 | 0 | 0.138 | 4.3 ± 0.49 | 6.34 | 0 | 46.4 | 53.5 | 64.5 | 66.4 | 76.9 ± 1.3 | 85.67 ± 0.21 | 96.7 | 48.4 | 4.55 |
| COc1cccc2c1C(=O)c1c(O)c3c(c(O)c1C2=O)C[C@@](O)(C(=O)CO)C[C@@H]3O[C@H]1C[C@H](N)[C@H](O)[C@H](C)O1 [Doxorubicin] (max concentration tested 1000 nM) | 7.71 | 10.2 | 11.9 | 11.2 | 10.6 ± 1.9 | 13.1 ± 0.35 | 9.59 | 12.7 | 13.9 | 0.81 | 0.0904 | 18 | 0.0502 ± 0.071 | 0 | 0.331 | 96.1 | 100 | 99.1 | 99.6 | 83.5 ± 6.7 | 98.561 ± 0.012 | 96.1 | 98.4 | 98.3 |
| COc1ccc(-c2cc3c(C)nc(N)nc3n([C@H]3CC[C@H](OCCO)CC3)c2=O)cn1 (max concentration tested 10000 nM) | 11.7 | 14.9 | 18.3 | 16.7 | 22.5 ± 0.84 | 16.6 ± 2 | 18.8 | 20.5 | 25.6 | 0.29 | 2.35 | 2.71 | 6.9 ± 1.9 | 6.06 | 4.38 | 70.2 | 97.5 | 92.1 | 92 | 98.4 ± 1.9 | 86.96 ± 0.63 | 99.7 | 92.3 | 101 |
| CC1=C(/C=C/C(C)=C/C=C/C(C)=C/C(=O)O)C(C)(C)CCC1 [Tretinoin] (max concentration tested 10000 nM) | 0 | 0 | 3.65 | 1.99 | 2.06 ± 2.6 | 0 | 1.48 | 0.0098 | 0 | 0 | 0 | 0 | 0.483 ± 0.68 | 0 | 0 | -12.1 | -3.32 | 32.9 | 20.1 | 22.8 ± 16 | 4.5 ± 5.9 | 19.1 | 12.3 | -8.64 |
| NC(=O)NO [Hydroxyurea] (max concentration tested 100000 nM) | 0 | 0.56 | 0.337 | 0 | 0 | 0 | 0 | 0 | 0 | 0 | 0 | 0 | 0 | 0 | 0 | 9.89 | 20.8 | 16.3 | 9.58 | 5.18 ± 7.5 | -3.38 ± 4.4 | 3.1 | 3.66 | 8.97 |
| Cc1ccc(NC(=O)c2ccc(CN3CCN(C)CC3)cc2)cc1Nc1nccc(-c2cccnc2)n1 [Imatinib] (max concentration tested 10000 nM) | 4.08 | 4.96 | 0 | 0 | 3.9 ± 0.28 | 0.251 ± 0.2 | 1.36 | 0.675 | 4.29 | 0.1 | 0 | 0 | 0.237 ± 0.34 | 1.72 | 0 | 58.8 | 89.5 | 9.96 | 8.82 | 49.5 ± 1.2 | 16.7 ± 2.7 | 33.4 | 23.5 | 53.8 |
